Measurements published in patent US10729691B2, “Treatment of infectious diseases with glucose uptake inhibitors” (Kadmon Corporation LLC, priority 2015, dated 2020).
Counter-ions that a name gives are not always drawn.

Each molecule was assayed on P. falciparum-infected RBCs (assay: Glycolysis IC50 / lactate excretion assay in P. falciparum-infected RBCs). Details: Plasmodium falciparum.
Type: cell-based
Experimental: The cultures were harvested and DNA quantitated using the standard Sybr Green I fluorescence assay. […] The culture medium was harvested and extracellular lactic acid was quantified by LC-MS.
P. falciparum (HB-3 strain) cultures were maintained in standard culture conditions. […] Parasites were grown in O+ donor blood, 2% hematocrit.
Parasite cultures were seeded in 96-well plates (1% hematocrit, 1-2% starting parasitemia, 100 μL total volume) with varying concentrations of the test compounds in a final concentration of 0.1% DMSO. Plates were cultured for 48 hours before harvesting the culture medium for LC-MS analysis. At harvest, thin smears were taken and examined microscopically to observe any alterations in parasite morphology.
Culture medium samples were diluted in 9 volumes of methanol containing U-^13C-glucose and 1-^13C-lactate (final concentration 0.25 mM each). The samples were clarified by centrifugation at 13,000 RCF for 10 minutes. […] Mobile phase A was acetonitrile, and mobile phase B was 20 mM ammonium acetate (pH 9.4).
The sample was analyzed on an Exactive mass spectrometer (Thermo Scientific) to determine the chromatographic peak areas the analytes and internal standards. Glucose and lactate were quantified by taking the ratio of the unlabeled peak area to the area of the isotope-labeled standard.
Work on `CC(C)NC(=O)COc1cccc(-c2nc3c(c(Nc4ccc(-c5cn[nH]c5)cc4)n2)CN(C(=O)C(C)C)CC3)c1` [Example 1, 2-(3-(4-((4-(1H-pyrazol-4-yl)phenyl)amino)-6-isobutyryl-5,6,7,8-tetrahydropyrido[4,3-d]pyrimidin-2-yl)phenoxy)-N-isopropylacetamide] yielded an IC50 of 10 to 100 nM. Work on `CC(C)NC(=O)COc1cccc(-c2nc3c(c(Nc4ccc(-c5cn[nH]c5)cc4)n2)COC3)c1` [Example 2, 2-(3-(4-((4-(1H-pyrazol-4-yl)phenyl)amino)-5,7-dihydrofuro[3,4-d]pyrimidin-2-yl)phenoxy)-N-isopropylacetamide] yielded an IC50 of 101 to 250 nM. `O=C(COc1cccc(-c2nc(Nc3ccc(-c4cn[nH]c4)cc3)c3sccc3n2)c1)NC1CC1` [Example 5] gave an IC50 of 251 to 500 nM. With `O=C(COc1cccc(-c2nc(Nc3ccc(-c4cn[nH]c4)cc3)c3occc3n2)c1)NC1CCCC1` [Example 9] the IC50 was 251 to 500 nM. Work on `Cn1cnc2c(Nc3ccc(-c4cn[nH]c4)cc3)nc(-c3cccc(OCC(=O)NC4CCC4)c3)nc21` [Example 11] yielded an IC50 of 101 to 250 nM. With `O=C(COc1cccc(-c2nc3c(c(Nc4ccc(-c5cn[nH]c5)cc4)n2)COC3)c1)NC1CCC1` [Example 12] the IC50 was 101 to 250 nM. Work on `O=C(COc1cccc(-c2nc3c(c(Nc4ccc(-c5cn[nH]c5)cc4)n2)COC3)c1)NC1CCCC1` [Example 13] yielded an IC50 of 101 to 250 nM. `CC(C)CNC(=O)COc1cccc(-c2nc(Nc3ccc(-c4cn[nH]c4)cc3)c3ncccc3n2)c1` [Example 14, 2-(3-(4-((4-(1H-pyrazol-4-yl)phenyl)amino)pyrido[3,2-d]pyrimidin-2-yl)phenoxy)-N-isobutylacetamide] gave an IC50 of 251 to 500 nM. `Cn1ncc2c(Nc3ccc(-c4cn[nH]c4)cc3)nc(-c3cccc(OCC(=O)NC4CCC4)c3)nc21` [Example 15, 2-(3-(4-((4-(1H-pyrazol-4-yl)phenyl)amino)-1-methyl-1H-pyrazolo[3,4-d]pyrimidin-6-yl)phenoxy)-N-cyclobutylacetamide] showed an IC50 of 101 to 250 nM. With `CC(C)NC(=O)COc1cccc(-c2nc(Nc3ccc(-c4cn[nH]c4)cc3)c3cnn(C)c3n2)c1` [Example 16, 2-(3-(4-((4-(1H-pyrazol-4-yl)phenyl)amino)-1-methyl-1H-pyrazolo[3,4-d]pyrimidin-6-yl)phenoxy)-N-isopropylacetamide] the IC50 was 10 to 100 nM. For `Cn1ncc2c(Nc3ccc(-c4cn[nH]c4)cc3)nc(-c3cccc(OCC(=O)NC4CCCC4)c3)nc21` [Example 17, 2-(3-(4-((4-(1H-pyrazol-4-yl)phenyl)amino)-1-methyl-1H-pyrazolo[3,4-d]pyrimidin-6-yl)phenoxy)-N-cyclopentylacetamide], the IC50 was 101 to 250 nM. `CC(C)CNC(=O)COc1cccc(-c2nc(Nc3ccc(-c4cn[nH]c4)cc3)c3cnn(C)c3n2)c1` [Example 18, 2-(3-(4-((4-(1H-pyrazol-4-yl)phenyl)amino)-1-methyl-1H-pyrazolo[3,4-d]pyrimidin-6-yl)phenoxy)-N-isobutylacetamide] was tested, and the IC50 was 10 to 100 nM. Work on `CC(C)NC(=O)COc1cccc(-c2nc(Nc3ccc(-c4cn[nH]c4)cc3)c3ccncc3n2)c1` [Example 19, 2-(3-(4-((4-(1H-pyrazol-4-yl)phenyl)amino)pyrido[3,4-d]pyrimidin-2-yl)phenoxy)-N-isopropylacetamide] yielded an IC50 of 101 to 250 nM. Molecule `O=C(COc1cccc(-c2nc(Nc3ccc(-c4cn[nH]c4)cc3)c3ccncc3n2)c1)NC1CCC1` [Example 20, 2-(3-(4-((4-(1H-pyrazol-4-yl)phenyl)amino)pyrido[3,4-d]pyrimidin-2-yl)phenoxy)-N-cyclobutylacetamide] has an IC50 of 101 to 250 nM. `O=C(COc1cccc(-c2nc(Nc3ccc(-c4cn[nH]c4)cc3)c3ccncc3n2)c1)NC1CCCC1` [Example 21, 2-(3-(4-((4-(1H-pyrazol-4-yl)phenyl)amino)pyrido[3,4-d]pyrimidin-2-yl)phenoxy)-N-cyclopentylacetamide] showed an IC50 of 101 to 250 nM. For `CC(C)NC(=O)COc1cccc(-c2nc(Nc3ccc(-c4cn[nH]c4)cc3)c3ncsc3n2)c1` [Example 22, 2-(3-(7-((4-(1H-pyrazol-4-yl)phenyl)amino)thiazolo[5,4-d]pyrimidin-5-yl)phenoxy)-N-isopropylacetamide], the IC50 was 251 to 500 nM. `O=C(COc1cccc(-c2nc(Nc3ccc(-c4cn[nH]c4)cc3)c3ncsc3n2)c1)NC1CCC1` [Example 23, 2-(3-(7-((4-(1H-pyrazol-4-yl)phenyl)amino)thiazolo[5,4-d]pyrimidin-5-yl)phenoxy)-N-cyclobutylacetamide] was tested, and the IC50 was 251 to 500 nM. Work on `O=C(COc1cccc(-c2nc(Nc3ccc(-c4cn[nH]c4)cc3)c3ncsc3n2)c1)NC1CCCC1` [Example 24, 2-(3-(7-((4-(1H-pyrazol-4-yl)phenyl)amino)thiazolo[5,4-d]pyrimidin-5-yl)phenoxy)-N-cyclopentylacetamide] yielded an IC50 of 251 to 500 nM. For `CC(C)CNC(=O)COc1cccc(-c2nc(Nc3ccc(-c4cn[nH]c4)cc3)c3ncsc3n2)c1` [Example 25, 2-(3-(7-((4-(1H-pyrazol-4-yl)phenyl)amino)thiazolo[5,4-d]pyrimidin-5-yl)phenoxy)-N-isobutylacetamide], the IC50 was 251 to 500 nM. `CC(C)(C)NC(=O)COc1cccc(-c2nc3c(c(Nc4ccc(-c5cn[nH]c5)cc4)n2)COC3)c1` [Example 26, 2-(3-(4-((4-(1H-pyrazol-4-yl)phenyl)amino)-5,7-dihydrofuro[3,4-d]pyrimidin-2-yl)phenoxy)-N-(tert-butyl)acetamide dihydrochloride] gave an IC50 of 101 to 250 nM. Work on `CCC(CC)NC(=O)COc1cccc(-c2nc3c(c(Nc4ccc(-c5cn[nH]c5)cc4)n2)COC3)c1` [Example 27, 2-(3-(4-((4-(1H-pyrazol-4-yl)phenyl)amino)-5,7-dihydrofuro[3,4-d]pyrimidin-2-yl)phenoxy)-N-(pentan-3-yl)acetamide dihydrochloride] yielded an IC50 of 10 to 100 nM. In the case of `CCC(C)NC(=O)COc1cccc(-c2nc3c(c(Nc4ccc(-c5cn[nH]c5)cc4)n2)COC3)c1` (stereo not drawn) [Example 28, 2-(3-(4-((4-(1H-pyrazol-4-yl)phenyl)amino)-5,7-dihydrofuro[3,4-d]pyrimidin-2-yl)phenoxy)-N-(sec-butyl)acetamide], the IC50 is reported as 10 to 100 nM. In the case of `CC(C)CNC(=O)COc1cccc(-c2nc3c(c(Nc4ccc(-c5cn[nH]c5)cc4)n2)COC3)c1` [Example 29, 2-(3-(4-((4-(1H-pyrazol-4-yl)phenyl)amino)-5,7-dihydrofuro[3,4-d]pyrimidin-2-yl)phenoxy)-N-isobutylacetamide], the IC50 is reported as 101 to 250 nM. With `CC(C)(C)CNC(=O)COc1cccc(-c2nc3c(c(Nc4ccc(-c5cn[nH]c5)cc4)n2)COC3)c1` [Example 30, 2-(3-(4-((4-(1H-pyrazol-4-yl)phenyl)amino)-5,7-dihydrofuro[3,4-d]pyrimidin-2-yl)phenoxy)-N-neopentylacetamide] the IC50 was 101 to 250 nM. With `O=C(COc1cccc(-c2nc3c(c(Nc4ccc(-c5cn[nH]c5)cc4)n2)COC3)c1)NC1CC(F)(F)C1` [Example 32, 2-(3-(4-((4-(1H-pyrazol-4-yl)phenyl)amino)-5,7-dihydrofuro[3,4-d]pyrimidin-2-yl)phenoxy)-N-(3,3-difluorocyclobutyl)acetamide] the IC50 was 251 to 500 nM. Work on `CC(C)NC(=O)COc1cccc(-c2nc3c(c(Nc4ccc(-c5cn[nH]c5)cc4)n2)CSC3)c1` [Example 34, 2-(3-(4-((4-(1H-pyrazol-4-yl)phenyl)amino)-5,7-dihydrothieno[3,4-d]pyrimidin-2-yl)phenoxy)-N-isopropylacetamide] yielded an IC50 of 501 to 1000 nM. `O=C(COc1cccc(-c2nc3c(c(Nc4ccc(-c5cn[nH]c5)cc4)n2)CSC3)c1)NC1CCC1` [Example 35, 2-(3-(4-((4-(1H-pyrazol-4-yl)phenyl)amino)-5,7-dihydrothieno[3,4-d]pyrimidin-2-yl)phenoxy)-N-cyclobutylacetamide] was tested, and the IC50 was 501 to 1000 nM. In the case of `O=C(COc1cccc(-c2nc3c(c(Nc4ccc(-c5cn[nH]c5)cc4)n2)CSC3)c1)NC1CCCC1` [Example 36, 2-(3-(4-((4-(1H-pyrazol-4-yl)phenyl)amino)-5,7-dihydrothieno[3,4-d]pyrimidin-2-yl)phenoxy)-N-cyclopentylacetamide], the IC50 is reported as 501 to 1000 nM. In the case of `CC(C)NC(=O)COc1cccc(-c2nc3c(c(Nc4ccc(-c5cn[nH]c5)cc4)n2)COCC3)c1` [Example 40, 2-(3-(4-((4-(1H-pyrazol-4-yl)phenyl)amino)-7,8-dihydro-5H-pyrano[4,3-d]pyrimidin-2-yl)phenoxy)-N-isopropylacetamide], the IC50 is reported as 10 to 100 nM. With `CCC(C)NC(=O)COc1cccc(-c2nc3c(c(Nc4ccc(-c5cn[nH]c5)cc4)n2)COCC3)c1` (stereo not drawn) [Example 41, 2-(3-(4-((4-(1H-pyrazol-4-yl)phenyl)amino)-7,8-dihydro-5H-pyrano[4,3-d]pyrimidin-2-yl)phenoxy)-N-(sec-butyl)acetamide] the IC50 was 10 to 100 nM. `CC(C)(C)NC(=O)COc1cccc(-c2nc(Nc3ccc(-c4cn[nH]c4)cc3)c3sccc3n2)c1` [Example 42, 2-(3-(4-((4-(1H-pyrazol-4-yl)phenyl)amino)thieno[3,2-d]pyrimidin-2-yl)phenoxy)-N-(tert-butyl)acetamide] showed an IC50 of 101 to 250 nM. `CCC(C)(C)NC(=O)COc1cccc(-c2nc(Nc3ccc(-c4cn[nH]c4)cc3)c3sccc3n2)c1` [Example 43, 2-(3-(4-((4-(1H-pyrazol-4-yl)phenyl)amino)thieno[3,2-d]pyrimidin-2-yl)phenoxy)-N-(tert-pentyl)acetamide] was tested, and the IC50 was 10 to 100 nM. Work on `CC(=O)N1CCc2nc(-c3cccc(OCC(=O)NC(C)C)c3)nc(Nc3ccc(-c4cn[nH]c4)cc3)c2C1` [Example 44, 2-(3-(4-((4-(1H-pyrazol-4-yl)phenyl)amino)-6-acetyl-5,6,7,8-tetrahydropyrido[4,3-d]pyrimidin-2-yl)phenoxy)-N-isopropylacetamide] yielded an IC50 of 10 to 100 nM.
